This note sets out measurements from US20240034729A9, “HETEROCYCLIC COMPOUND, INTERMEDIATE, PREPARATION METHOD THEREFOR AND APPLICATION THEREOF” (WUHAN LL SCIENCE AND TECHNOLOGY DEVELOPMENT CO., LTD., priority 2018, published 2024).

Series [1] in a line: In vitro metabolic stability, human liver microsome. The format is in vitro ADME. The following applies: liver microsomes, 1 mg/mL liver microsome protein, 37° C., NA = essentially not metabolized, read-out: T1/2 in human liver microsome. On the procedure:
(§1) The in vitro metabolic stability of the compounds disclosed herein was determined through incubation of liver microsomes of various species. […] At each time point, 100 μL of the reaction mixture was added into a centrifuge tube containing 400 μL of internal standard working solution (containing a 200 ng/mL solution of dexamethasone, diclofenac, tolbutamide and labetalol in acetonitrile) precooled at 0° C. so as to terminate the reaction, and the mixture was then centrifuged at 10,000 g for 10 min at 4° C. The supernatant was collected for LC-MS assay so as to obtain the values of in vitro metabolic half-life of the test compounds in liver microsomes of various species.
For orientation: Liver microsomes are a subcellular fraction often used to study metabolism.

Series [2] concerns the target hP2X3 (human purinergic P2X receptor subtype 3) (Homo sapiens (Human), UniProt P56373). Kind of series: FLIPR calcium assay, hP2X3 expressed in HEK293 cells. The format is cell-based. The following applies: read-out: P2X3 IC50.
Series [3] addresses hP2X2/3 (heterodimeric receptors formed by human purinergic P2X receptors subtype 2 and subtype 3) (Homo sapiens (Human), UniProt P56373+Q9UBL9). Kind of series: FLIPR calcium assay, hP2X2/3 expressed in HEK293 cells (P2X2/3 receptor selectivity). Format: cell-based. The following applies: for IC50: HEK293 cells expressing hP2X2/3, agonist BZ-ATP 5 μM, unit inferred.
Series [4] can be described thus: In vitro cytotoxicity assay, CCK-8 method. The note with it: human, HepG2 cells. The format is cell-based. The procedure:
In vitro cytotoxicity assay for the compounds disclosed herein was performed in HepG2 cells using the CCK-8 method. HepG2 cells (Beina Bio) in the logarithmic growth phase were collected, the concentration of cell suspension was adjusted, and then the cells were plated on a 96-well cell culture plate at 50,000 cells/well. The cells were then incubated overnight in a cell incubator of 5% […] at 37° C., and after 80-90% cell confluence was achieved, test compounds or vehicle (DMSO) at various concentration gradients were added after medium change. The plate was incubated in a cell incubator of 5% […] at 37° C. for 48 h. After the treatment, the medium in the plate was discarded. The plate was washed twice with PBS, added with CCK-8 working solution (Beyotime) at 100 μL per well, and then incubated at 37° C. for 1.5 h away from light. Absorbance at OD450nm was measured for each well on a microplate reader, and CC50 value of each compound was analyzed and calculated.

Series [5] is described as follows: In vitro metabolic stability, rat liver microsome. The format is in vitro ADME. The following applies: liver microsomes, 1 mg/mL liver microsome protein, 37° C., NA = essentially not metabolized, read-out: T1/2 in rat liver microsome. On the procedure:
as §1

A short description of series [6]: In vitro metabolic stability, guinea pig liver microsome. Format: in vitro ADME. The note with it: liver microsomes, 1 mg/mL liver microsome protein, 37° C., NA = essentially not metabolized, read-out: T1/2 in guinea pig liver microsome. On the procedure:
The in vitro metabolic stability of the compounds disclosed herein was determined through incubation of liver microsomes of various species. A proper amount of test compound was added into a liver microsome reaction system (1 mg/mL liver microsome protein, 25 U/mL glucose-6 phosphate dehydrogenase, 1 mM NADP, 6 mM D-glucose 6-phosphate and 5 mM MgCl2), and then the mixture was incubated in a water bath kettle at 37° C. to start the reaction. At each time point, 100 μL of the reaction mixture was added into a centrifuge tube containing 400 μL of internal standard working solution (containing a 200 ng/mL solution of dexamethasone, diclofenac, tolbutamide and labetalol in acetonitrile) precooled at 0° C. so as to terminate the reaction, and the mixture was then centrifuged at 10,000 g for 10 min at 4° C. The supernatant was collected for LC-MS assay so as to obtain the values of in vitro metabolic half-life of the test compounds in liver microsomes of various species.

hP2X2/3 (heterodimeric receptors formed by human purinergic P2X receptors subtype 2 and subtype 3), sequence (P56373 whole entry): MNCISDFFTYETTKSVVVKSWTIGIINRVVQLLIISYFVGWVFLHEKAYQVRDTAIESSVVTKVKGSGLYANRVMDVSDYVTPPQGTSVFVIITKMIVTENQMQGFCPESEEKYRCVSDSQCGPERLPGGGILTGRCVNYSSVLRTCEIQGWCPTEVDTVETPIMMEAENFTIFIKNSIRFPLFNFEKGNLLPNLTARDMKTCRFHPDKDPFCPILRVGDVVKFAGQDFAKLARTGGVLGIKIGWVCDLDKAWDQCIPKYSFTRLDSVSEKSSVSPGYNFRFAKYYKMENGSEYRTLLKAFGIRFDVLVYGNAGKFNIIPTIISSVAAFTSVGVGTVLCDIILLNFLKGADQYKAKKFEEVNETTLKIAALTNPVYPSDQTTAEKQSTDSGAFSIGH
hP2X2/3 (heterodimeric receptors formed by human purinergic P2X receptors subtype 2 and subtype 3), sequence (Q9UBL9 whole entry): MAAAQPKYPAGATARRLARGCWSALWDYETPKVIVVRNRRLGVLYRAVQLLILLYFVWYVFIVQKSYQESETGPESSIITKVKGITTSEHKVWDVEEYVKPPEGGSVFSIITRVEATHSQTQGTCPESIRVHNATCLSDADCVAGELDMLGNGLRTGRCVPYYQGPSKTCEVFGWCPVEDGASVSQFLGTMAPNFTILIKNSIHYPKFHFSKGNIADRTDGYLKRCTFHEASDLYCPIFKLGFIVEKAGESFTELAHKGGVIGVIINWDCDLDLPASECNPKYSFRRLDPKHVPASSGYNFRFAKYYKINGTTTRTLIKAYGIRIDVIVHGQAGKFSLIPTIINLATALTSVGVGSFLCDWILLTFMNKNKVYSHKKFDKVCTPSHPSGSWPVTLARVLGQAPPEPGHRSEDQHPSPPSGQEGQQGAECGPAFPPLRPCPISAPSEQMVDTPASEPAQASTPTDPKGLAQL
hP2X3 (human purinergic P2X receptor subtype 3), sequence (P56373 whole entry): as the sequence (P56373 whole entry) above

For orientation: IC50 means the midpoint of a concentration-inhibition curve. Take `COC(=O)N1CCO[C@@H](Cc2c(-c3ccc(S(N)(=O)=O)cc3C(F)(F)F)nc3cc(C)ccn23)C1` [Compound 189, methyl (S)-2-((7-methyl-2-(4-sulfamoyl-2-(trifluoromethyl)phenyl)imidazo[1,2-a]pyridin-3-yl)methyl)morpholine-4-carboxylate]: the half-life in series [1] turned out to be 145 min. Besides, the IC50 in series [2] came to 10 nM.

Consider `COC(=O)N1CCO[C@@H](Cc2c(-c3ccc(S(N)(=O)=O)cc3Cl)nc3cc(Cl)ccn23)C1` [Compound 178, methyl (S)-2-((7-chloro-2-(2-chloro-4-sulfamoylphenyl)imidazo[1,2-a]pyridin-3-yl)methyl)morpholine-4-carboxylate], for which, in series [1], the half-life worked out at 1230 min. For the same compound, the IC50 in series [2] was 0.1 nM.

Regarding `COC(=O)N1CCO[C@@H](Cc2c(-c3c(F)cc(-c4ccc(C#N)[nH]4)cc3F)nc3cc(C)ccn23)C1` [Compound 138, methyl (S)-2-((2-(2,6-difluoro-4-(5-cyano-1H-pyrrol-2-yl)phenyl)-7-methylimidazo[1,2-a]pyridin-3-yl)methyl)morpholine-4-carboxylate], the IC50 was under 10 nM in series [2] and over 60 µM in series [3]. Besides, the Folds of selectivity result in series [3] is given as “A (key: A: folds of selectivity >1000; B: 200< folds of selectivity ≤1000; C: folds of selectivity ≤200)”.

With `COC(=O)N1CCO[C@@H](Cc2c(-c3c(F)cc(NC(=O)CC4(C(=O)O)CC4)cc3F)nc3cc(C)ccn23)C1` [Compound 61, (S)-1-(2-((3,5-difluoro-4-(3-((4-(carbomethoxy<methoxycarbonyl>)morpholin-2-yl)methyl)-7-methylimidazo [1,2-a]pyridin-2-yl)phenyl)amino)-2-carbonylethyl)cyclopropanecarboxylic acid], the IC50 in series [2] is under 10 nM. In series [3], the Folds of selectivity entry is on record as “A (key: A: folds of selectivity >1000; B: 200< folds of selectivity ≤1000; C: folds of selectivity ≤200)” and the IC50 is over 60 µM.

As to `CNC(=O)c1cc(F)c(-c2oc3cc(C)cnc3c2C[C@H]2CN(C(=O)OC)CCO2)c(F)c1` [Compound 54, methyl (S)-2-((2-(2,6-difluoro-4-(methylcarbamoyl)phenyl)-6-methylfurano[3,2-b]pyridin-3-yl)methyl)morpholine-4-carboxylate], the IC50 in series [2] was under 10 nM. Also, in series [3], the Folds of selectivity result is “A (key: A: folds of selectivity >1000; B: 200< folds of selectivity ≤1000; C: folds of selectivity ≤200)” and the IC50 was over 60 µM.

A word on the CC50: it is the concentration giving 50% cytotoxicity. A higher CC50 goes with better tolerance by the cells. Take `CC(=O)N1CCO[C@@H](Cc2c(-c3c(F)cc(-c4nnc[nH]4)cc3F)nc3cc(Cl)ccn23)C1` [Compound 166]: the IC50 in series [2] is under 10 nM. The CC50 at 48 h in series [4] is over 100 µM. For the same compound, in series [3], the Folds of selectivity result is on record as “A (key: A: folds of selectivity >1000; B: 200< folds of selectivity ≤1000; C: folds of selectivity ≤200)” and the IC50 was over 60 µM.

In series [4], `CC(=O)N1CCO[C@@H](Cc2c(-c3c(F)cc(-c4ncco4)cc3F)nc3cc(C)ccn23)C1` [Compound 163, (S)-1-(2-((2-(2,6-difluoro-4-(oxazol-2-yl)phenyl)-7-methylimidazo[1,2-a]pyridin-3-yl)methyl)morpholino)ethan-1-one] gave a CC50 at 48 h of over 100 µM.

In series [4], `CC(=O)N1CCO[C@@H](Cc2c(-c3c(F)cc(-n4cccn4)cc3F)nc3cc(Cl)ccn23)C1` [Compound 160, (S)-1-(2-((7-chloro-2-(2,6-difluoro-4-(1H-pyrazol-1-yl)phenyl)imidazo[1,2-a]pyridin-3-yl)methyl)morpholino)ethan-1-one] gave a CC50 at 48 h of over 100 µM.

In the case of `CC(=O)N1CCO[C@@H](Cc2c(-c3c(F)cc(S(N)(=O)=O)cc3F)nc3cc(Cl)ccn23)C1` [Compound 174, (S)-4-(3-((4-acetylmorpholin-2-yl)methyl)-7-chloroimidazo[1,2-a]pyridin-2-yl)-3,5-difluorobenzenesulfonamide], the half-life in series [5] was found to be 398 min; in series [6] it was 1110 min. In addition, the IC50 in series [2] was determined as 1.6 nM. In addition, the CC50 at 48 h in series [4] is over 200 µM.

`CC(=O)N1CCO[C@@H](Cc2c(-c3c(F)cc(-c4ncco4)cc3F)nc3cc(Cl)ccn23)C1` [Compound 159, (S)-1-(2-((7-chloro-2-(2,6-difluoro-4-(oxazol-2-yl)phenyl)imidazo[1,2-a]pyridin-3-yl)methyl)morpholino)ethan-1-one]: the CC50 at 48 h in series [4] is over 100 µM.

Take `COC(=O)N1CCO[C@@H](Cc2c(-c3c(F)cc(NC(=O)CCC(=O)O)cc3F)nc3cc(C)ccn23)C1` [Compound 25, (S)-4-((3,5-difluoro-4-(3-((4-(methoxycarbonyl)morpholin-2-yl)methyl)-7-methylimidazo[1,2-a]pyridin-2-yl)-phenyl)-amino)-4-oxobutanoic acid]: the half-life stood at 228 min in series [5] and 298 min in series [1]. Moreover, the figures for the IC50 in series [2] and in series [3] were under 10 nM and over 60 µM, respectively. Besides, the CC50 at 48 h in series [4] was over 100 µM. Moreover, the Folds of selectivity result in series [3] is on record as “A (key: A: folds of selectivity >1000; B: 200< folds of selectivity ≤1000; C: folds of selectivity ≤200)”.

With `COC(=O)N1CCO[C@@H](Cc2c(-c3c(F)cc(-n4cnnn4)cc3F)nc3cc(C)ccn23)C1` [Compound 58], in series [3], the Folds of selectivity entry was “A (key: A: folds of selectivity >1000; B: 200< folds of selectivity ≤1000; C: folds of selectivity ≤200)” and the IC50 is over 60 µM.

As for `CC(=O)N1CCO[C@@H](Cc2c(-c3c(F)cc(-n4ccnc4)cc3F)nc3cc(Cl)ccn23)C1` [Compound 158, (S)-1-(2-((7-chloro-2-(2,6-difluoro-4-(1H-imidazol-1-yl)phenyl)imidazo[1,2-a]pyridin-3-yl)methyl)morpholino)ethan-1-one], the IC50 in series [2] was under 10 nM; in series [3], over 60 µM. The compound further registered a CC50 at 48 h in series [4] of over 100 µM. For the same compound, the Folds of selectivity entry in series [3] was “A (key: A: folds of selectivity >1000; B: 200< folds of selectivity ≤1000; C: folds of selectivity ≤200)”.

In the case of `COC(=O)N1CCO[C@@H](Cc2c(-c3c(F)cc(S(N)(=O)=O)cc3Cl)nc3cc(C)ccn23)C1` [Compound 177, methyl (S)-2-((2-(2-chloro-6-fluoro-4-sulfamoylphenyl)-7-methylimidazo[1,2-a]pyridin-3-yl)methyl)morpholine-4-carboxylate], the half-life in series [1] came to 325 min. Moreover, in series [2], the IC50 amounted to 1.1 nM.

Turning to `CC(=O)Nc1cc(F)c(-c2nc3cc(C)ccn3c2C[C@H]2CN(C(C)=O)CCO2)c(F)c1` [Compound 167, (S)—N-(4-(3-((4-acetylmorpholin-2-yl)methyl)-7-methylimidazo[1,2-a]pyridin-2-yl)-3,5-difluorophenyl)acetamide], the CC50 at 48 h in series [4] is over 100 µM.

As for `COC(=O)N1CCO[C@@H](Cc2c(-c3ncc(S(N)(=O)=O)nc3Cl)nc3cc(C)ccn23)C1` [Compound 191], the IC50 in series [2] was under 10 nM; in series [3] it was over 60 µM. In series [3], the Folds of selectivity entry is listed as “A (key: A: folds of selectivity >1000; B: 200< folds of selectivity ≤1000; C: folds of selectivity ≤200)”.

For `COC(=O)N1CCO[C@@H](Cc2c(-c3c(F)cc(NC(C)=O)cc3F)nc3cc(C(F)F)ccn23)C1` [Compound 151], in series [2], the IC50 is under 10 nM. In addition, in series [3], the Folds of selectivity entry is recorded as “A (key: A: folds of selectivity >1000; B: 200< folds of selectivity ≤1000; C: folds of selectivity ≤200)” and the IC50 was over 60 µM.

For `CC(=O)N1CCO[C@@H](Cc2c(-c3c(F)cc(S(N)(=O)=O)cc3F)nc3cc(C)ccn23)C1` [Compound 173, (S)-4-(3-((4-acetylmorpholin-2-yl)methyl)-7-methylimidazo[1,2-a]pyridin-2-yl)-3,5-difluorobenzenesulfonamide], the values for the half-life in series [5] and in series [6] were 101 min and 647 min, respectively. Further, the IC50 in series [2] is 1.8 nM; in series [3] it was 33.9 µM. This compound showed a CC50 at 48 h in series [4] of over 200 µM. Besides, the Folds of selectivity in series [3] came out at 18811.

As for `COC(=O)N1CCO[C@@H](Cc2c(-c3c(F)cc(Nc4ccc(F)o4)cc3F)nc3cc(C)ccn23)C1` [Compound 73], the IC50 in series [2] lay within 50 to 200 nM.
